Measurements published in PubChem BioAssay (NCI).
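Exposure lasted 48 hours, with cells grown in 96-well plates and compounds tested at five concentrations. Here, GI50 denotes the concentration required for 50% inhibition of growth. TGI denotes the concentration required for complete inhibition of growth.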

Key:
Assay in all cases: inhibition of tumour cell growth, NCI panel, 48 h
M14 melanoma = system: M14 melanoma
SK-MEL-2 melanoma = system: SK-MEL-2 melanoma
HOP-92 NSCLC = system: HOP-92 NSCLC
SR leukemia = system: SR leukemia
A549 NSCLC = system: A549 NSCLC
K-562 leukemia = system: K-562 leukemia
CCRF-CEM leukemia = system: CCRF-CEM leukemia
SNB-19 CNS = system: SNB-19 CNS
RXF 393 renal = system: RXF 393 renal
HS 578T breast = system: HS 578T breast

Structure (SMILES) | GI50 (M14 melanoma) [µM] | TGI (M14 melanoma) [µM] | GI50 (SK-MEL-2 melanoma) [µM] | TGI (SK-MEL-2 melanoma) [µM] | GI50 (HOP-92 NSCLC) [nM] | TGI (HOP-92 NSCLC) [µM] | GI50 (SR leukemia) [µM] | TGI (SR leukemia) [µM] | GI50 (A549 NSCLC) [µM] | TGI (A549 NSCLC) [µM] | GI50 (K-562 leukemia) [µM] | TGI (K-562 leukemia) [µM] | GI50 (CCRF-CEM leukemia) [µM] | TGI (CCRF-CEM leukemia) [µM] | GI50 (SNB-19 CNS) [µM] | TGI (SNB-19 CNS) [µM] | GI50 (RXF 393 renal) [µM] | TGI (RXF 393 renal) [µM] | GI50 (HS 578T breast) [µM] | TGI (HS 578T breast) [µM]
COC1=C(OC)C(=O)C(C/C=C(\C)CC/C=C(\C)CC/C=C(\C)CC/C=C(\C)CC/C=C(\C)CC/C=C(\C)CC/C=C(\C)CC/C=C(\C)CC/C=C(\C)CCC=C(C)C)=C(C)C1=O | > 100 | > 100 | > 100 | > 100 | > 100000 | > 100 | > 100 | > 100 | > 100 | > 100 | > 100 | > 100 | > 100 | > 100 | > 100 | > 100 | > 100 | > 100 | > 100 | > 100
CN1CCN(C(=O)c2ccc(NC(=O)Nc3ccc(-c4nc(N5CCOCC5)c5cccn5n4)cc3)cc2)CC1 | 0.0966 | 10.3 | 0.0596 | 1.39 | 19.3 | 0.0759 | 0.0465 | 8.7 | 0.0606 | 12.1 | 0.0963 | 14.7 | 0.0473 | 5.67 | 0.0363 | 11.1 | 0.0307 | 0.175 | 0.0177 | 0.082
Cc1c(Nc2nccc3cc(CN4CC[C@@H](O)C4)cnc23)cccc1-c1cccc(-c2nc3cc(CN4CC[C@@H](C(=O)O)C4)cc(C#N)c3o2)c1C | 5.82 | 20.3 | > 100 | > 100 | 2000 | > 100 | 2.95 | 24.7 | 5.33 | 19.1 | 1.44 | > 100 | 3.2 | > 100 | 16.5 | 46.2 | 2 | 5.41 | 15.1 | > 100
O=S(=O)(/N=S(/Nc1ccccc1)C(F)(F)Cl)c1ccccc1 (centres undefined) |  | > 100 |  | > 100 |  | > 100 |  | > 100 |  | > 100 |  | > 100 |  | > 100 |  | > 100 |  | > 100 |  | > 100
COc1cc(C)cc(C(=O)/C=C/c2ccccc2)c1O |  | 34.8 |  | 48.2 |  | 31.2 |  | 77.6 |  | > 100 |  | > 100 |  | 84.1 |  | 38.5 |  | 35.7 |  | > 100
N#CC1=C(N)NC(N2CCOCC2)=NC12Nc1ccccc1O2 (centres undefined) | 39.6 | > 100 | 39.7 | > 100 | > 100000 | > 100 | 27.7 | > 100 | 70 | > 100 | 39.2 | > 100 | 44 | > 100 | 90.7 | > 100 | 61.5 | > 100 | 23.6 | 68.1
O=C1NC(=O)C(=Cc2cn(Cc3ccccc3)c3ccccc23)C(=O)N1 | 17.9 | 44.4 | 6.41 | 28.3 | 1500 | 19.9 | 10.6 | 30.5 | 13 | 30.7 | 4.23 | > 48.6 | 20.5 | > 67.2 | 16.2 | 38.9 | 11.6 | 48.3 | 8.71 | 29.3
CC1CCCC(C#N)(NOC2=NCCN2)C1 (centres undefined) | 84.1 | > 100 | 57.3 | > 100 | 36500 | 75.1 | 7.87 | > 100 | 63.4 | > 100 | 17.4 | 61.5 | 53.8 | > 100 | > 100 | > 100 | 65.1 | > 100 | 52.3 | > 100
Nc1nc(Cl)nc2c1ncn2C1OC(CO)C(O)C1F (centres undefined) | 0.024 | 0.0889 | > 100 | > 100 | 124 | > 68 | 1.67 | 5.26 | 0.144 | > 100 | 0.426 | > 100 |  | 0.424 | 0.191 | > 100 | 12.8 | > 100 | 4.71 | > 80.7
